Reference: patent US20130196984A1, “3-AMINO-5-PHENYL-56-DIHYDRO-2H-[1,4]OXAZINES” (Siena Biotech S.p.A., priority 2009, published 2013)
Structures can show the parent of a compound that is named as a salt.

How the values were obtained:
[1] = target: T1, BACE2 (Homo sapiens, UniProt Q9Y5Z0); test: Assay A: binding studies using SPR based methods, immobilised BACE2; conditions: CM5 chip, immobilised BACE2 enzyme ectodomain, acetate buffer pH 4.6, 4% DMSO
T1 construct: BACE2 enzyme ectodomain (derived from plasmid “pET17b-T7-hu proBACE2”); T7 (N); made in house
T1 sequence (Q9Y5Z0 63-473 limits assumed): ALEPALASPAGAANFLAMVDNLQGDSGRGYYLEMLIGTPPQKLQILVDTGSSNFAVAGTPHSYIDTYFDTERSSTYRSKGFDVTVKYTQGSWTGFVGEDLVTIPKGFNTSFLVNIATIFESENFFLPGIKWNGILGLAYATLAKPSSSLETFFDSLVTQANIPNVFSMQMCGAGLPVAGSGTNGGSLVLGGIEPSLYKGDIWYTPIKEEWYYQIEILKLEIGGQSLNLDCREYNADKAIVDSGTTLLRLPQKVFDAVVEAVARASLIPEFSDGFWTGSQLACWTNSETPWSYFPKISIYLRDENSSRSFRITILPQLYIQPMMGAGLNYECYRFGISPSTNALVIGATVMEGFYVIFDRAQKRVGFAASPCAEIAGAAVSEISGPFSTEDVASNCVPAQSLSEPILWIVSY

[2] = target: T2, BACE2 (Rattus norvegicus, UniProt Q6IE75); test: Assay for BACE inhibition by measuring cellular TMEM27 cleavage; assay type: cell-based; conditions: INS-TMEM27 (INS1e-derived) cells, ELISA of shed human TMEM27 in supernatant;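 also: inhibitor added 2 h before doxycycline-induced hTMEM27 expression, supernatant collected after further 46 h, endogenous BACE2 activity read as reduced TMEM27 shedding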
T2 construct: endogenous cellular BACE2 in the Ins1e rat cell line; endogenous in cells; host or cells: INS-TMEM27 (INS1e-derived rat cell line with doxycycline-inducible full-length hTMEM27)
T2 sequence (Q6IE75 63-514): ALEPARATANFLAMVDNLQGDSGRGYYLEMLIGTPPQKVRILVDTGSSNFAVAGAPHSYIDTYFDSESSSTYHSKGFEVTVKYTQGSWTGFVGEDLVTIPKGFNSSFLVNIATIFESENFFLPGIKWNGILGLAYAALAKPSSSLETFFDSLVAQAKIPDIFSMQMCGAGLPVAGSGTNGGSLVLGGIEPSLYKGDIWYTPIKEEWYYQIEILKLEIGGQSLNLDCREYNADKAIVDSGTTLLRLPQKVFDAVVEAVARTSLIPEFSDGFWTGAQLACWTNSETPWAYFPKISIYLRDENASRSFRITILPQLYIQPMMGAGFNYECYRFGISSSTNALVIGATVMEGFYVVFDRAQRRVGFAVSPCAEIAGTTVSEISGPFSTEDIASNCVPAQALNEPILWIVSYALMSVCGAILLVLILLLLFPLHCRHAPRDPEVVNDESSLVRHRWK

[3] = target: T3, BACE1 (Homo sapiens, UniProt P56817); test: Cellular Abeta-lowering assay; assay type: cell-based; parameters: endogenous in cells; host or cells: HEK293 stably transfected with human APP695 wt; conditions: HEK293 cells stably transfected with human APP wt (APP695), Aβ40 ELISA of supernatant after 18-20 hrs
[4] = target: T3, BACE1; test: Assay A: binding studies using SPR based methods, immobilised BACE1; parameters: 6his-tagged full length BACE 1 expressed in SF9 cells; 6His; made in house; host or cells: SF9 insect cells; conditions: CM5 chip, immobilised 6his-tagged full length BACE 1, acetate buffer pH 4.6, 4% DMSO;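 also: KD from a 1:1 kinetic fit (koff/kon) of real-time association and dissociation curves, or for fast binders from end-of-association equilibrium responses plotted against log concentration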

T3 sequence (P56817 46-501): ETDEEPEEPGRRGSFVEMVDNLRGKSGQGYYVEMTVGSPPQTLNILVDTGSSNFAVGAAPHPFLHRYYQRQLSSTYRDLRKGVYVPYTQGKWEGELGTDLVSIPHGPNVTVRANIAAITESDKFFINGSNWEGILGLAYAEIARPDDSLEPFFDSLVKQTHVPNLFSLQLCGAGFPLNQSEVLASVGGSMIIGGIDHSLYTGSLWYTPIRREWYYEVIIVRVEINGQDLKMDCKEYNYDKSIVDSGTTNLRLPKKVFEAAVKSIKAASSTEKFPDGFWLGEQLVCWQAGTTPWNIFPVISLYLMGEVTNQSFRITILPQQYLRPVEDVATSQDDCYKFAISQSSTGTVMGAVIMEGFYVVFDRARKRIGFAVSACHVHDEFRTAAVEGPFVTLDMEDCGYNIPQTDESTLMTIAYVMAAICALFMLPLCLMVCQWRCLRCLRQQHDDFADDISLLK

| Kd [1] | IC50 [2] | IC50 [3] | Kd [4] | SMILES |
| --- | --- | --- | --- | --- |
| 1220 nM | 910 nM | 620 nM | 3950 nM | C[C@@]1(c2cc(NC(=O)C3CC3(F)F)ccc2F)COCC(N)=N1 (mixture of isomers) [Example 53, (RS)-2,2-difluoro-cyclopropanecarboxylic acid [3-((R)-5-amino-3-methyl-3,6-dihydro-2H-[1,4]oxazin-3-yl)-4-fluoro-phenyl]-amide] |
| 1720 nM | > 10000 nM | 1190 nM | 10800 nM | CC1(C)OCC(N)=N[C@]1(C)c1cc(NC(=O)C2CC2(F)F)ccc1F (mixture of isomers) [Example 56, (RS)-2,2-difluoro-cyclopropanecarboxylic [3-((R)-5-amino-2,2,3-trimethyl-3,6-dihydro-2H-[1,4]oxazin-3-yl)-4-fluoro-phenyl]-amide] |
| 477 nM | 52 nM | 120 nM | 474 nM | CC(F)C(=O)Nc1ccc(F)c([C@]2(C)COCC(N)=N2)c1 (mixture of isomers) [Example 87, (RS)—N-[3-((R)-5-amino-3-methyl-3,6-dihydro-2H-[1,4]oxazin-3-yl)-4-fluoro-phenyl]-2-fluoro-propionamide formate] |
| 9 nM | 48 nM | 16 nM | 50 nM | CC1(c2cccc(NC(=O)c3ncc(Cl)cc3Cl)c2)COCC(N)=N1 (racemic) [Example 2, (RS)-3,5-dichloro-pyridine-2-carboxylic acid [3-(5-amino-3-methyl-3,6-dihydro-2H-[1,4]oxazin-3-yl)-phenyl]-amide] |
| 381 nM | 950 nM | 570 nM | 1720 nM | CC1(c2cccc(NC(=O)c3ccc(Cl)cc3Cl)c2)COCC(N)=N1 (racemic) [Example 4, (RS)—N-[3-(5-amino-3-methyl-3,6-dihydro-2H-[1,4]oxazin-3-yl)-phenyl]-2,4-dichloro-benzamide] |
| 230 nM | 660 nM | 1530 nM | 6900 nM | CC1(c2cccc(NC(=O)c3cccc(Cl)c3)c2)COCC(N)=N1 (racemic) [Example 6, (RS)—N-[3-(5-amino-3-methyl-3,6-dihydro-2H-[1,4]oxazin-3-yl)-phenyl]-3-chloro-benzamide] |
| 106 nM | 360 nM | 327 nM | 1490 nM | CC1(c2cccc(NC(=O)c3ccc(Cl)s3)c2)COCC(N)=N1 (racemic) [Example 8, (RS)-5-chloro-thiophene-2-carboxylic acid [3-(5-amino-3-methyl-3,6-dihydro-2H-[1,4]oxazin-3-yl)-phenyl]-amide] |
| 63 nM | 43 nM | 58 nM | 717 nM | Cc1cc(C(=O)Nc2cccc(C3(C)COCC(N)=N3)c2)c(C)s1 (racemic) [Example 9, (RS)-2,5-dimethyl-thiophene-3-carboxylic acid [3-(5-amino-3-methyl-3,6-dihydro-2H-[1,4]oxazin-3-yl)-phenyl]-amide] |
| 33 nM | 51 nM | 24 nM | 445 nM | Cc1cc(C(=O)Nc2cccc(C3(C)COCC(N)=N3)c2)c(C)o1 (racemic) [Example 13, (RS)-2,5-dimethylfuran-3-carboxylic acid [3-(5-amino-3-methyl-3,6-dihydro-2H-[1,4]oxazin-3-yl)-phenyl]-amide] |
| 98 nM | 837 nM | 130 nM | 394 nM | CC1(c2cc(NC(=O)c3ccc(Cl)cc3)ccc2F)COCC(N)=N1 (racemic) [Example 19, (RS)—N-[3-(5-amino-3-methyl-3,6-dihydro-2H-[1,4]oxazin-3-yl)-4-fluoro-phenyl]-4-chloro-benzamide] |
| 19 nM | 11 nM | 11 nM | 140 nM | NC1=NC(c2cc(NC(=O)c3ccc(Cl)cn3)ccc2F)(C2CC2)COC1 (racemic) [Example 22, (RS)-5-Chloro-pyridine-2-carboxylic acid [3-(5-amino-3-cyclopropyl-3,6-dihydro-2H-[1,4]oxazin-3-yl)-4-fluoro-phenyl]-amide] |
|  | 320 nM | 1130 nM |  | CC1(c2cc(NC(=S)c3ccc(Cl)cc3)ccc2F)COCC(N)=N1 (racemic) [Example 27, (RS)—N-[3-(5-Amino-3-methyl-3,6-dihydro-2H-[1,4]oxazin-3-yl)-4-fluoro-phenyl]-4-chloro-thiobenzamide] |
| 6 nM | 140 nM | 50 nM | 58 nM | C[C@@]1(c2cc(NC(=O)c3ccc(Cl)cn3)ccc2F)CO[C@@H](Cc2ccccc2)C(N)=N1 (racemic) [Example 29, 5-Chloro-pyridine-2-carboxylic acid [3-((3R,6S)— and (3S,6R)-5-amino-6-benzyl-3-methyl-3,6-dihydro-2H-[1,4]oxazin-3-yl)-4-fluoro-phenyl]-amide] |
| 2150 nM | > 10000 nM | 110 nM | 261 nM | CC1(c2cc(NC(=O)c3cc(-c4ccco4)on3)ccc2F)COCC(N)=N1 (racemic) [Example 75, 5-Furan-2-yl-isoxazole-3-carboxylic acid [3-((RS)-5-amino-3-methyl-3,6-dihydro-2H-[1,4]oxazin-3-yl)-4-fluoro-phenyl]-amide] |
|  | 820 nM | 500 nM | 805 nM | C[C@@]1(c2cc(NC(=O)C(F)C(F)(F)F)ccc2F)COCC(N)=N1 (mixture of isomers) [Example 89, formate] |
| 11 nM | 58 nM | 19 nM | 71 nM | C[C@@]1(c2cc(NC(=O)c3ccc(Cl)cn3)ccc2F)CO[C@H](Cc2ccccc2)C(N)=N1 [Example 28, 5-Chloro-pyridine-2-carboxylic acid [3-((3R,6R)— and (3S,6)-5-amino-6-benzyl-3-methyl-3,6-dihydro-2H-[1,4]oxazin-3-yl)-4-fluoro-phenyl]-amide] |
| 4 nM | 16 nM | 15 nM | 28 nM | C[C@@]1(c2cc(NC(=O)c3ncc(Cl)cn3)ccc2F)COCC(N)=N1 [Example 35, 5-chloro-pyrimidine-2-carboxylic acid [3-((R)-5-amino-3-methyl-3,6-dihydro-2H-[1,4]oxazin-3-yl)-4-fluoro-phenyl]-amide] |
| 955 nM | 120 nM | 550 nM | 2260 nM | C[C@@]1(c2cc(NC(=O)c3coc(C(F)(F)F)c3)ccc2F)COCC(N)=N1 [Example 36, 5-trifluoromethyl-furan-3-carboxylic acid [3-((R)-5-amino-3-methyl-3,6-dihydro-2H-[1,4]oxazin-3-yl)-4-fluoro-phenyl]-amide] |
| 20 nM | 17 nM | 240 nM | 283 nM | C[C@@]1(c2cc(NC(=O)c3ncccc3F)ccc2F)COCC(N)=N1 [Example 37, 3-fluoro-pyridine-2-carboxylic acid [3-((R)-5-amino-3-methyl-3,6-dihydro-2H-[1,4]oxazin-3-yl)-4-fluoro-phenyl]-amide] |
|  | 730 nM | 800 nM |  | Cc1nc(C(F)(F)F)c(C(=O)Nc2ccc(F)c([C@]3(C)COCC(N)=N3)c2)s1 [Example 47, 2-methyl-4-trifluoromethyl-thiazole-5-carboxylic acid [3-((R)-5-amino-3-methyl-3,6-dihydro-2H-[1,4]oxazin-3-yl)-4-fluoro-phenyl]-amide] |
